Source: patent US9072729B2, “Method for treating fibrosis and cancer with imidazolium and imidazolinium compounds” (Agency for Science, Technology and Research, priority 2008, dated 2015)
Like-named read-outs stand apart in the source and are kept apart here.

How the values were obtained:
HLE cells = test: Cell cycle analysis (PI flow cytometry); type: cell-based, human; settings: 72 h; for cells in the S phase: at respective IC-50, control 24%; for cells in the G2/M phase: at respective IC-50, control 30%; for cells in the G1 phase: at respective IC-50, control 50%
Protocol: FIG. 37. IMSs arrest Hepatocarcinoma cells. Cells were treated with vehicle and IBN 15, IBN 19, IBN 24, IBN 25 and IBN 32 for 72 h, and cell cycle distribution was assessed by flow cytometry. A) Example FACS profiles of propidium iodide-stained control cells, and cells treated with IMSs respectively. B) % of cells in cell cycle phase C) % of cells in subG0 population. Each value is the mean±S.D. of three determinations.
To perform cell cycle distribution analysis, 4×10^5 cells were plated in 10 cm dish. The cells (70% confluence) were serum-starved for 24 h to synchronize them in the G0 phase of the cell cycle. After 24 h incubation, the cells were replaced with fresh 10% DMEM medium and then treated 60 μM of IBN-15, 90 μM of IBN-19, 90 μM of IBN-24, 30 μM of […] and 20 μM of IBN-32) and 0.045% DMSO as control for 72 h. The floating and trypsinized adherent cells were collected and washed with PBS. The cell pellets were resuspended in 1 ml of PBS and fixed by the addition of 70% ice-cold ethanol and stored at −20° C. After incubation for 24 hr, the cells were re-pelleted by centrifugation, the cells were washed once with PBS and resuspended in 0.1 mL of PBS containing 100 μg/ml of RNase and then incubated at 37° C. for 15 min. Finally, the cells were stained with 0.5 ml of PI solution (100 μg/mL in PBS) for 30 min. Cell cycle distribution was detected by a BD FACS array flow cytometer (Becton Dickinson). Cells with sub-G0 DNA were classified as apoptotic cells.

HSC T6 cells = test: MTS based proliferation assay (cytotoxicity) on cultured HSC-T6 cells; type: cell-based, rat; settings: for IC50: read-out: IC50 (toxicity on T6 cells); for inhibition of cell proliferation: 48 h, 10% FBS DMEM
Protocol: FIG. 1. Cytotoxicity of (a) DBZIM and (b) TDBZIM. […] The signal was normalized against a vehicle control treatment (0 μM of compound). The data were obtained from four independent experiments, and presented as mean and standard error or mean (SEM), *^aP<0.05, *^bP<0.01 and *^cP<0.005.
Firstly we assessed the cytotoxicity of DBZIM and TDBZIM on cultured HSC-T6 cells using a 3-(4,5-dimethylthiazol-2-yl)-5-(3-carboxymethoxyphenyl)-2-(4-sulfophenyl)-2H-tetrazolium (MTS) based proliferation assay kit (Promega, Wis., USA). […]

GPx = test: Glutathione peroxidase (GPx) activity assay in treated cells; type: cell-based, rat
Protocol: (§1) FIG. 4. Effect of DBZIM and TDBZIM on GPx, CAT, SOD and GST. DBZIM affected (a) GPx activity and (c) CAT activity in a dosage-dependent manner. TDBZIM suppressed (b) GPx activity and (d) CAT activity. (e) DBZIM and (f) TDBZIM had little effect on SOD activity. (g) DBZIM induced GST activity. HSC T6 cells were treated with compounds of various concentrations for 48 h, and homogenized by sonication (60% frequency for 30 s) in PBS (pH 7.4, 1 mM of EDTA) for GPx, GST and CAT assays, or in 20 mM of HEPES buffer containing 1 mM of EGTA, 210 mM of mannitol and 70 mM of sucrose (pH 7.2) for SOD assay. Enzyme activity was normalized against total protein. DBZIM was dissolved in DMSO, and TDBZIM was dissolved in H2O. The data were presented as mean and SEM, N=6, *^aP<0.05, *^bP<0.01, *^cP<0.005, and *^dP<0.0005, when compared to the vehicle control.
Activity levels of three anti-oxidant enzymes, GPx, CAT and SOD, were determined using assay kits from Cayman Chemical. To assay GPx and CAT activities, protein samples were harvested in ice-cold PBS containing 1 mM of EDTA. To assay SOD activity, protein samples were prepared in 20 mM of N-(2-hydroxyethyl)-piperazine-N′-2-ethanesulfonic acid (HEPES) buffer containing 1 mM of ethylene glycol-bis(2-aminoethylether)-N,N,N′,N′-tetraacetic acid (EGTA), 210 mM of mannitol and 70 mM of sucrose. Protein content was determined by BCA assay.
GPx activity was indirectly measured by a coupled reaction with GSH reductase. Oxidized GSH, produced upon reduction of H2O2 by GPx, is recycled to its reduced state by glutathione reductase (GR) and nicotinamide adenine dinucleotide phosphate (NADPH). The oxidation of NAPDH is proportional to the GPx activity, and can be measured as a decrease in absorbance at 340 nm. GPx activity was expressed as nmol/min/mg protein.

GST = test: Glutathione S-transferase (GST) assay in treated cells; type: cell-based, rat; settings: for enhancement of GST activity: 48 h
Protocol: as §1
The activity of phase II anti-oxidant enzyme, GST, was assayed using a kit from Cayman Chemical. Protein samples were harvested in PBS buffer containing 1 mM of EDTA, and the protein concentration was determined by BCA assay. Total GST (cytosolic and microsomal) activity was assayed by measuring the conjugation of 1-chloro-2,4-dinitobenzene (CDNB) with reduced GSH, and monitored by an increase in absorbance at 340 nm. GST activity was expressed as nmol/min/mg protein.

[1] = Rattus norvegicus, HSC-T6, HSC T6 cells

CC(=O)Oc1ccc(C[n+]2ccn(Cc3ccccc3)c2C)cc1.[Cl-] [IBN-19, 1-benzyl-3-(4-acetate-benzyl)-2-methyl-imidazolium chloride]
cells in the S phase (HLE cells): 19.8%
cells in the G2/M phase (HLE cells): 23.7%
cells in the G1 phase (HLE cells): 29%

CC(C)n1cc[n+](C(C)C)c1.F[B-](F)(F)F [DPIM, 1,3-diisopropylimidazolium tetrafluoroborate]
IC50 (HSC T6 cells; [1]): 3100 µM

1,3,5-tris(4-methyl-imidazolium)-linked cyclophane.3Br [TDBZIM]
IC50 (HSC T6 cells; HSC T6 cells): ~500 µM
inhibition of cell proliferation (HSC T6 cells; TDBZIM 125-200 μM): 13-19%
attenuation of GPx activity (GPx; 10 μM, 48 h): 18%
attenuation of GPx activity (GPx; 50 μM, 48 h): 25%
attenuation of GPx activity (GPx; 100 μM, 48 h): 34%

Cc1ccc(C[n+]2ccn(Cc3ccccc3)c2)cc1.[Cl-] [IBN-24, 1-benzyl-3-(4-methylbenzyl)-imidazolium chloride]
cells in the S phase (HLE cells): 11.34%
cells in the G2/M phase (HLE cells): 16.3%
cells in the G1 phase (HLE cells): 28.6%

(−)-Epigallocatechin gallate [EGCG, reference compound]
attenuation of GPx activity (references) (GPx; EGCG 25 μM, NAC 5 mM): 53%
effect on GST activity (references) (GST; EGCG, NAC): did not have much affect

[Br-].c1ccc(Cn2cc[n+](Cc3ccccc3)c2)cc1 [DBZIM, 1,3-bisbenzylimidazolium bromide]
inhibition of cell proliferation (HSC T6 cells; DBZIM 250-400 μM): 3.5-8.9%
IC50 (HSC T6 cells; [1]): 1700 µM
attenuation of GPx activity (GPx; 10 μM, 48 h): 10%
attenuation of GPx activity (GPx; 50 μM, 48 h): 10%
enhancement of GPx activity (GPx; 300 μM, 48 h): 15%
enhancement of GST activity (GST; 100 μM): 22%
enhancement of GST activity (GST; 300 μM): 32%
